In publication PMC5218480 (PLoS ONE, 2017):

Tested on: MV-4-11 cells
Assay: Gene expression microarray analysis (Affymetrix PrimeView) and GSEA
Type: cell-based, human
Set-up: RFU PODN (11730768_x_at) / Fold change /veh PODN (11730768_x_at) / RFU LINC00158 (11744669_a_at) / Fold change /veh LINC00158 (11744669_a_at) / RFU DUSP10 (11751237_a_at) / Fold change /veh DUSP10 (11751237_a_at) / RFU ID3 (11757404_x_at) / Fold change /veh ID3 (11757404_x_at) / RFU PLEKHG5 (11737974_s_at) / Fold change /veh PLEKHG5 (11737974_s_at) / RFU LRRC4B (11730491_at) / Fold change /veh LRRC4B (11730491_at) / RFU GIMAP4 (11747438_a_at) / Fold change /veh GIMAP4 (11747438_a_at) / RFU KRT8 (11758183_x_at) / Fold change /veh KRT8 (11758183_x_at) / RFU CNN1 (11734310_a_at) / Fold change /veh CNN1 (11734310_a_at) / RFU VPS37D (11726825_at) / Fold change /veh VPS37D (11726825_at) / RFU C10orf10 (11716522_x_at) / Fold change /veh C10orf10 (11716522_x_at) / RFU KIR2DL2 /// KIR2DL4 /// KIR2DL5A /// KIR2DL5B /// KIR2DS1 /// KIR2DS2 /// KIR2DS3 /// KIR2DS4 /// KIR3DL3 /// KIR3DL3 /// KIR3DS1 (11738374_at) / Fold change /veh KIR2DL2 /// KIR2DL4 /// KIR2DL5A /// KIR2DL5B /// KIR2DS1 /// KIR2DS2 /// KIR2DS3 /// KIR2DS4 /// KIR3DL3 /// KIR3DL3 /// KIR3DS1 (11738374_at) / RFU C1QL1 (11718748_at) / Fold change /veh C1QL1 (11718748_at) / RFU TMPRSS4 (11747572_a_at) / Fold change /veh TMPRSS4 (11747572_a_at) / RFU HAMP (11756126_x_at) / Fold change /veh HAMP (11756126_x_at) / RFU RNFT2 (11725882_a_at) / Fold change /veh RNFT2 (11725882_a_at) / RFU NR4A2 (11747474_a_at) / Fold change /veh NR4A2 (11747474_a_at) / RFU ABCC12 (11746883_a_at) / Fold change /veh ABCC12 (11746883_a_at) / RFU TMEM136 (11760407_x_at) / Fold change /veh TMEM136 (11760407_x_at) / RFU CLDN22 /// WWC2 (11732394_at) / Fold change /veh CLDN22 /// WWC2 (11732394_at) / RFU HLA-DPB1 (11760878_x_at) / Fold change /veh HLA-DPB1 (11760878_x_at) / RFU SPINT1 (11716480_a_at) / Fold change /veh SPINT1 (11716480_a_at) / RFU GAP43 (11754022_s_at) / Fold change /veh GAP43 (11754022_s_at) / RFU A4GNT (11735810_at) / Fold change /veh A4GNT (11735810_at) / RFU PRB3 (11715151_x_at) / Fold change /veh PRB3 (11715151_x_at) / RFU TUBB4B (11761932_at) / Fold change /veh TUBB4B (11761932_at) / RFU CAPN14 (11732068_a_at) / Fold change /veh CAPN14 (11732068_a_at) / RFU TMCC2 (11721928_a_at) / Fold change /veh TMCC2 (11721928_a_at) / RFU IRGQ (11745062_a_at) / Fold change /veh IRGQ (11745062_a_at) / RFU FAM174B (11720279_a_at) / Fold change /veh FAM174B (11720279_a_at) / RFU TMPRSS4 (11748680_a_at) / Fold change /veh TMPRSS4 (11748680_a_at) / RFU FAM212B (11763350_a_at) / Fold change /veh FAM212B (11763350_a_at) / RFU PLEKHG5 (11743358_a_at) / Fold change /veh PLEKHG5 (11743358_a_at) / RFU ZSCAN30 (11745921_a_at) / Fold change /veh ZSCAN30 (11745921_a_at) / RFU CMKLR1 (11741424_a_at) / Fold change /veh CMKLR1 (11741424_a_at) / RFU LOC101060620 /// MAPK8IP1 (11723275_at) / Fold change /veh LOC101060620 /// MAPK8IP1 (11723275_at) / RFU SPTSSB (11747773_x_at) / Fold change /veh SPTSSB (11747773_x_at) / RFU PRSS12 (11739890_at) / Fold change /veh PRSS12 (11739890_at) / RFU BIN1 (11741810_x_at) / Fold change /veh BIN1 (11741810_x_at) / RFU WNT11 (11732464_a_at) / Fold change /veh WNT11 (11732464_a_at) / RFU C10orf10 (11716521_a_at) / Fold change /veh C10orf10 (11716521_a_at) / RFU C5orf56 (11738089_at) / Fold change /veh C5orf56 (11738089_at) / RFU CYB561 (11721691_x_at) / Fold change /veh CYB561 (11721691_x_at) / RFU ANKRD19P (11752326_a_at) / Fold change /veh ANKRD19P (11752326_a_at) / RFU OR2T12 /// OR2T33 /// OR2T8 (11738714_s_at) / Fold change /veh OR2T12 /// OR2T33 /// OR2T8 (11738714_s_at) / RFU VCAN (11748164_a_at) / Fold change /veh VCAN (11748164_a_at) / RFU JSRP1 (11732532_at) / Fold change /veh JSRP1 (11732532_at) / RFU KRTAP10-11 (11738290_x_at) / Fold change /veh KRTAP10-11 (11738290_x_at) / RFU MYO3A (11730013_a_at) / Fold change /veh MYO3A (11730013_a_at) / RFU EBF3 (11725865_a_at) / Fold change /veh EBF3 (11725865_a_at) / RFU CAMK2N1 (11719241_x_at) / Fold change /veh CAMK2N1 (11719241_x_at) / RFU C5orf56 (11738088_a_at) / Fold change /veh C5orf56 (11738088_a_at) / RFU OLFML3 (11715873_a_at) / Fold change /veh OLFML3 (11715873_a_at) / RFU LOC100653217 /// NTM (11731650_a_at) / Fold change /veh LOC100653217 /// NTM (11731650_a_at) / RFU MAPK11 (11762145_a_at) / Fold change /veh MAPK11 (11762145_a_at) / RFU FIZ1 (11724087_x_at) / Fold change /veh FIZ1 (11724087_x_at) / RFU OASL (11726364_x_at) / Fold change /veh OASL (11726364_x_at) / RFU SOX15 (11748057_x_at) / Fold change /veh SOX15 (11748057_x_at) / RFU CD79A (11719716_a_at) / Fold change /veh CD79A (11719716_a_at) / RFU HIST1H1D (11736915_at) / Fold change /veh HIST1H1D (11736915_at) / RFU CASKIN2 (11723855_a_at) / Fold change /veh CASKIN2 (11723855_a_at) / RFU LOC730098 (11760151_x_at) / Fold change /veh LOC730098 (11760151_x_at) / RFU OR4N2 (11742367_at) / Fold change /veh OR4N2 (11742367_at) / RFU PRRT2 (11749266_a_at) / Fold change /veh PRRT2 (11749266_a_at) / RFU SNX32 (11753110_a_at) / Fold change /veh SNX32 (11753110_a_at) / RFU CDHR5 (11726645_a_at) / Fold change /veh CDHR5 (11726645_a_at) / RFU RCAN1 (11760418_a_at) / Fold change /veh RCAN1 (11760418_a_at) / RFU FAM167A (11723789_a_at) / Fold change /veh FAM167A (11723789_a_at) / RFU FAM26E (11764081_at) / Fold change /veh FAM26E (11764081_at) / RFU ISYNA1 (11749810_s_at) / Fold change /veh ISYNA1 (11749810_s_at) / RFU ACY1 (11761880_at) / Fold change /veh ACY1 (11761880_at) / RFU 11764098_at / Fold change /veh 11764098_at / RFU SAMD14 (11745864_x_at) / Fold change /veh SAMD14 (11745864_x_at) / RFU NPB (11741838_a_at) / Fold change /veh NPB (11741838_a_at) / RFU TMPRSS6 (11731388_a_at) / Fold change /veh TMPRSS6 (11731388_a_at) / RFU KRTAP10-2 (11738614_at) / Fold change /veh KRTAP10-2 (11738614_at) / RFU ARHGAP8 /// PRR5-ARHGAP8 (11727945_x_at) / Fold change /veh ARHGAP8 /// PRR5-ARHGAP8 (11727945_x_at) / RFU KRTAP5-7 /// NADSYN1 (11734609_at) / Fold change /veh KRTAP5-7 /// NADSYN1 (11734609_at) / RFU RASL12 (11751679_a_at) / Fold change /veh RASL12 (11751679_a_at) / RFU CDKN2B (11736163_a_at) / Fold change /veh CDKN2B (11736163_a_at) / RFU PRF1 (11729649_at) / Fold change /veh PRF1 (11729649_at) / RFU, ZNF638 /// ZNF638-IT1 / Fold change vs veh, ZNF638 /// ZNF638-IT1 / RFU, PANK3 / Fold change vs veh, PANK3 / RFU, SH3YL1 / Fold change vs veh, SH3YL1 / RFU, ZEB2 / Fold change vs veh, ZEB2 / RFU, NRIP1 / Fold change vs veh, NRIP1 / RFU, PTTG1IP / Fold change vs veh, PTTG1IP / RFU, CAPN2 / Fold change vs veh, CAPN2 / RFU, MED14 / Fold change vs veh, MED14 / RFU, SNORA58 / Fold change vs veh, SNORA58 / RFU, C1orf63 / Fold change vs veh, C1orf63 / RFU, LRRFIP1 / Fold change vs veh, LRRFIP1 / RFU, NDUFAF7 / Fold change vs veh, NDUFAF7 / RFU, SLC12A2 / Fold change vs veh, SLC12A2 / RFU, IBTK / Fold change vs veh, IBTK / RFU, ESF1 / Fold change vs veh, ESF1 / Fold change vs veh, TMEM50B / RFU, TAOK1 / Fold change vs veh, TAOK1 / RFU, ACBD3 / Fold change vs veh, ACBD3 / RFU, TMA16 / Fold change vs veh, TMA16 / RFU, RWDD3 / Fold change vs veh, RWDD3 / RFU, BCAT1 / Fold change vs veh, BCAT1 / RFU, EDEM3 / Fold change vs veh, EDEM3 / RFU, TMEM33 / Fold change vs veh, TMEM33 / RFU, WDR75 / Fold change vs veh, WDR75 / RFU, AHCTF1 / Fold change vs veh, AHCTF1 / RFU, TFRC / Fold change vs veh, TFRC / RFU, ZDHHC17 / Fold change vs veh, ZDHHC17 / RFU, NOM1 / Fold change vs veh, NOM1 / RFU, ARL8B / Fold change vs veh, ARL8B / RFU, ZBTB11 / Fold change vs veh, ZBTB11 / RFU, TAMM41 / Fold change vs veh, TAMM41 / RFU, KIAA1704 /// LOC100996395 / Fold change vs veh, KIAA1704 /// LOC100996395 / RFU, ING1 / Fold change vs veh, ING1 / RFU, TRMT61B / Fold change vs veh, TRMT61B / RFU, FUBP3 / Fold change vs veh, FUBP3 / RFU, TP53 / Fold change vs veh, TP53 / RFU, TNKS2 / Fold change vs veh, TNKS2 / RFU, ZFP14 / Fold change vs veh, ZFP14 / RFU, ACTR2 / Fold change vs veh, ACTR2 / RFU, PPP3R1 / Fold change vs veh, PPP3R1 / RFU, PIK3R1 / Fold change vs veh, PIK3R1 / RFU, HNRNPA1 / Fold change vs veh, HNRNPA1 / RFU, RNF170 / Fold change vs veh, RNF170 / RFU, ZNF28 / Fold change vs veh, ZNF28 / RFU, RNGTT / Fold change vs veh, RNGTT / RFU, OGT / Fold change vs veh, OGT / RFU, BRD1 / Fold change vs veh, BRD1 / RFU, MARS / Fold change vs veh, MARS / RFU, ZNF655 / Fold change vs veh, ZNF655 / RFU, FAHD1 / Fold change vs veh, FAHD1 / RFU, BDP1 / Fold change vs veh, BDP1 / RFU, LRRCC1 / Fold change vs veh, LRRCC1 / RFU, ARID1A / Fold change vs veh, ARID1A / RFU, ZNF146 / Fold change vs veh, ZNF146 / RFU, ZNF330 / Fold change vs veh, ZNF330 / RFU, GPN3 / Fold change vs veh, GPN3 / RFU, C9orf123 / Fold change vs veh, C9orf123 / RFU, N4BP2L2 / Fold change vs veh, N4BP2L2 / RFU, ARFIP1 / Fold change vs veh, ARFIP1 / RFU, FAM179B / Fold change vs veh, FAM179B / RFU, BCL10 / Fold change vs veh, BCL10 / RFU, UHRF1BP1L / Fold change vs veh, UHRF1BP1L / RFU, BET1 / Fold change vs veh, BET1 / RFU, CNOT2 / Fold change vs veh, CNOT2 / RFU, ZNF268 / Fold change vs veh, ZNF268 / Fold change vs veh, ZNF507 / RFU, DGCR2 / Fold change vs veh, DGCR2 / RFU, WDSUB1 / Fold change vs veh, WDSUB1 / Fold change vs veh, HSP90B1 /// MIR3652 / RFU, ADSS / Fold change vs veh, ADSS / RFU, GK / Fold change vs veh, GK / RFU, ZNF148 / Fold change vs veh, ZNF148 / RFU, TAF9 / Fold change vs veh, TAF9 / RFU, SLC1A5 / Fold change vs veh, SLC1A5 / RFU, SLMO2 / Fold change vs veh, SLMO2 / RFU, ABCC4 / Fold change vs veh, ABCC4 / RFU, LOC101060439 /// RAP1B / Fold change vs veh, LOC101060439 /// RAP1B / RFU, RFX7 / Fold change vs veh, RFX7 / RFU, GTPBP10 / Fold change vs veh, GTPBP10 / RFU, CNEP1R1 / Fold change vs veh, CNEP1R1 / RFU, BIVM-ERCC5 /// ERCC5 / Fold change vs veh, BIVM-ERCC5 /// ERCC5 / RFU, ILF3 / Fold change vs veh, ILF3 / RFU 11762660_at / Fold change /veh 11762660_at / RFU VCAN (11757783_s_at) / Fold change /veh VCAN (11757783_s_at) / RFU DDX43 (11728927_at) / Fold change /veh DDX43 (11728927_at) / RFU KRT8 (11758188_x_at) / Fold change /veh KRT8 (11758188_x_at) / RFU NKD1 (11759106_at) / Fold change /veh NKD1 (11759106_at) / RFU SRD5A1 (11742802_a_at) / Fold change /veh SRD5A1 (11742802_a_at) / RFU TPSAB1 /// TPSB2 (11721975_s_at) / Fold change /veh TPSAB1 /// TPSB2 (11721975_s_at) / RFU GSTM3 (11746129_a_at) / Fold change /veh GSTM3 (11746129_a_at) / RFU IL23R (11737362_x_at) / Fold change /veh IL23R (11737362_x_at) / RFU TMEM51 (11727254_a_at) / Fold change /veh TMEM51 (11727254_a_at) / RFU PIWIL2 (11732686_x_at) / Fold change /veh PIWIL2 (11732686_x_at) / RFU ORM1 (11744905_x_at) / Fold change /veh ORM1 (11744905_x_at) / RFU CCDC152 (11743942_at) / Fold change /veh CCDC152 (11743942_at) / RFU ECM1 (11717891_a_at) / Fold change /veh ECM1 (11717891_a_at) / RFU IL23R (11748794_a_at) / Fold change /veh IL23R (11748794_a_at) / RFU TNFAIP8L3 (11732012_x_at) / Fold change /veh TNFAIP8L3 (11732012_x_at) / RFU MBOAT4 (11741988_at) / Fold change /veh MBOAT4 (11741988_at) / RFU 11764193_at / Fold change /veh 11764193_at / RFU TMEM53 (11763286_at) / Fold change /veh TMEM53 (11763286_at) / RFU MAGEB2 (11727129_at) / Fold change /veh MAGEB2 (11727129_at) / RFU TMEM200A (11744735_a_at) / Fold change /veh TMEM200A (11744735_a_at) / RFU CCDC152 (11751479_a_at) / Fold change /veh CCDC152 (11751479_a_at) / RFU FAM211A (11726209_a_at) / Fold change /veh FAM211A (11726209_a_at) / RFU RGS16 (11746705_a_at) / Fold change /veh RGS16 (11746705_a_at) / RFU VCAN (11755009_s_at) / Fold change /veh VCAN (11755009_s_at) / RFU RHOB (11743442_s_at) / Fold change /veh RHOB (11743442_s_at) / RFU RGS16 (11720943_a_at) / Fold change /veh RGS16 (11720943_a_at) / RFU RGS16 (11720944_at) / Fold change /veh RGS16 (11720944_at) / RFU, VPS4B / Fold change vs veh, VPS4B / RFU, CREB1 / Fold change vs veh, CREB1 / RFU, DNAJC13 / Fold change vs veh, DNAJC13 / RFU, GNAQ / Fold change vs veh, GNAQ / RFU, CDK5R1 / Fold change vs veh, CDK5R1 / RFU, ZRANB3 / Fold change vs veh, ZRANB3 / RFU, CUL4A / Fold change vs veh, CUL4A / RFU, CCNY / Fold change vs veh, CCNY / RFU, UFL1 / Fold change vs veh, UFL1 / RFU, COG3 / Fold change vs veh, COG3 / RFU, DIAPH2 / Fold change vs veh, DIAPH2 / RFU, SKA2 / Fold change vs veh, SKA2 / RFU, AFF3 / Fold change vs veh, AFF3 / RFU, LMF1 / Fold change vs veh, LMF1 / RFU, IPO11 / Fold change vs veh, IPO11 / RFU, DFFB / Fold change vs veh, DFFB / RFU, FOXP1 / Fold change vs veh, FOXP1 / RFU, CARD8 / Fold change vs veh, CARD8 / RFU, STRN3 / Fold change vs veh, STRN3 / RFU, ADK / Fold change vs veh, ADK / RFU, RASSF2 / Fold change vs veh, RASSF2 / RFU, WIPF1 / Fold change vs veh, WIPF1 / RFU, LARP1B / Fold change vs veh, LARP1B / RFU, RASA1 / Fold change vs veh, RASA1 / RFU, RB1 / Fold change vs veh, RB1 / RFU, PPFIA1 / Fold change vs veh, PPFIA1 / RFU, MAT2A / Fold change vs veh, MAT2A / RFU, CCT5 / Fold change vs veh, CCT5 / RFU, WDR92 / Fold change vs veh, WDR92 / RFU, CUX1 / Fold change vs veh, CUX1 / RFU, TTC7A / Fold change vs veh, TTC7A / RFU, TMEM135 / Fold change vs veh, TMEM135 / RFU, DEPTOR / Fold change vs veh, DEPTOR / RFU, CPM / Fold change vs veh, CPM / RFU, DNAJB6 / Fold change vs veh, DNAJB6 / RFU, CACNA2D3 / Fold change vs veh, CACNA2D3 / RFU, DTX4 / Fold change vs veh, DTX4 / RFU, TFCP2 / Fold change vs veh, TFCP2 / RFU, GMCL1 /// GMCL1P1 / Fold change vs veh, GMCL1 /// GMCL1P1 / RFU, AEBP2 / Fold change vs veh, AEBP2 / RFU, SNHG1 /// SNORD22 /// SNORD25 /// SNORD26 /// SNORD27 /// SNORD28 /// SNORD29 /// SNORD31 / Fold change vs veh, SNHG1 /// SNORD22 /// SNORD25 /// SNORD26 /// SNORD27 /// SNORD28 /// SNORD29 /// SNORD31 / Fold change (Aza/veh), C12orf56 (ProbeSet 11735607_a_at) / Fold change (ACY-1035/veh), C12orf56 (ProbeSet 11735607_a_at) / Fold change (Aza/veh), FGFR1OP (ProbeSet 11751329_s_at) / Fold change (ACY-1035/veh), FGFR1OP (ProbeSet 11751329_s_at) / Fold change (Aza/veh), VPS36 (ProbeSet 11739960_a_at) / Fold change (ACY-1035/veh), VPS36 (ProbeSet 11739960_a_at) / RFU SYPL1 (11715823_x_at) / Fold change /veh SYPL1 (11715823_x_at) / RFU IGFBP7 (11715501_s_at) / Fold change /veh IGFBP7 (11715501_s_at) / RFU REEP3 (11722064_at) / Fold change /veh REEP3 (11722064_at) / RFU IGLL1 (11728026_x_at) / Fold change /veh IGLL1 (11728026_x_at): dose or concentration left out as unconfirmed
Details: ProbeSet 11731583_a_at; LIST D

SMILES: Nc1ccc(-c2cccs2)cc1NC(=O)c1ccc2c(c1)cc(C1CC1)n2CCN1CCOCC1 [ACY-1035]
- Fold change vs veh, LARP1B: 0.85
